Measurements: patent publication US20230339981A1, “KRAS G12D MODULATING COMPOUNDS” (priority 2022, published 2023)

How the values were obtained:
GDP-loaded KRAS G12D = GDP-loaded KRAS G12D (Homo sapiens (Human), UniProt P01116, G12D); assay: KRAS G12D (GDP) biochemical assay (TR-FRET probe displacement); type: binding; conditions: 2 hours
In short: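 Compound pre-incubated 30 min with GDP-loaded KRAS G12D in 50 mM Hepes pH 7.4, 150 mM NaCl, 5 mM MgCl2, 0.005% Tween-20, then Eu-streptavidin and TR-FRET probe added. After 2 h at room temperature, TR-FRET ratio read; IC50 is 50% ratio decrease, sigmoidal fit.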

GP2D (KRAS G12D) cells = assay: 2D cell viability assay (CellTiter-Glo); type: cell-based; conditions: 4 days
In short: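 GP2D (KRAS G12D) cells, 1000/well in RPMI + 10% FBS, were plated onto compound (1:3 DMSO series) and grown 4 days at 37 °C, 5% CO2 in 2D. CellTiter-Glo luminescence was read; EC50 is the concentration giving 50% signal decrease, from sigmoidal fit.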

AsPC-1 (KRAS G12D) cells = assay: 3D cell viability assay (spheroids, CellTiter-Glo 3D); type: cell-based; conditions: AsPC-1 cells, 3D spheroids, 4 days
Description: Example C. 3D Cell Viability Assay
Compounds were tested in a 384-well format for their ability to inhibit the viability of AsPC-1 (KRAS G12D) cells in 3D assays. On day 0, 1000 cells/well (80 μL volume per well) in DMEM with 10% FBS, and Penicillin-Streptomycin-Glutamine were plated in 384-well Ultra-Low Attachment Spheroid Microplates (Corning, Catalog #3830) on the BioTEK EL406 liquid dispenser with a 5 μL dispensing cassette (BioTek 7170011). The plates were incubated at 37° C., 5% CO2 for 3 days to allow spheroid formation. On day 3, compounds were serially diluted (1:3) in DMSO. The Biomek FX was used to add 400 nL of test molecule per well. The plates were incubated at 37° C., 5% CO2 for 4 days before addition of CellTiter-Glo 3D (Promega, Catalog #9683) reagent and measurement of luminescence signal. EC50 values were defined as the compound concentration that causes a 50% decrease in luminescence signal and were calculated using a sigmoidal dose-response model to generate curve fits.

Row | Compound | IC50 (GDP-loaded KRAS G12D) | EC50 (GP2D (KRAS G12D) cells) | EC50 (AsPC-1 (KRAS G12D) cells) | EC50 (GP2D (KRAS G12D) cells; GP2d, 96 h) | EC50 (AsPC-1 (KRAS G12D) cells; Homo sapiens, ASPC1, 96 h)
1 | 4-((5S,5aS,6S,9R)-5-ethyl-1-fluoro-12-(((2R,7aS)-2-fluorotetrahydro-1H-pyrrolizin-7a(5H)-yl)methoxy)-5a,6,7,8,9,10-hexahydro-5H-4-oxa-3,10a,11,13,14-pentaaza-6,9-methanonaphtho[1,8-ab]heptalen-2-yl)-5-ethynyl-6-fluoronaphthalen-2-ol [Example 80] | 0.1 nM | 2.2 nM | 2 nM | – | –
2 | C#Cc1c(F)ccc2cccc(-c3nc4c5c(nc(OC[C@@]67CCCN6C[C@H](F)C7)nc5c3F)N3C[C@H]5CC[C@H](N5)C3C[C@@H]4C)c12 (stereo in doubt) [Example 93, (4S,5aS,6S,9R)-2-(8-ethynyl-7-fluoronaphthalen-1-yl)-1-fluoro-12-(((2R,7aS)-2-fluorotetrahydro-1H-pyrrolizin-7a(5H)-yl)methoxy)-4-methyl-4,5,5a,6,7,8,9,10-octahydro-3,10a,11,13,14-pentaaza-6,9-methanonaphtho[1,8-ab]heptalene] | 2.5 nM | – | – | 26.6 nM | 82 nM
3 | C#Cc1c(F)ccc2cc(O)cc(-c3nc4c5c(nc(OC[C@@]67CCCN6C[C@H](F)C7)nc5c3F)N3C[C@H]5CC[C@H](N5)C3C[C@@H]4C)c12 (stereo in doubt) [Example 94, 5-ethynyl-6-fluoro-4-((4S,5aS,6S,9R)-1-fluoro-12-(((2R,7aS)-2-fluorotetrahydro-1H-pyrrolizin-7a(5H)-yl)methoxy)-4-methyl-4,5,5a,6,7,8,9,10-octahydro-3,10a,11,13,14-pentaaza-6,9-methanonaphtho[1,8-ab]heptalen-2-yl)naphthalen-2-ol] | 0.1 nM | – | – | 0.6 nM | 2.2 nM
4 | C#Cc1c(F)ccc2cc(O)cc(-c3nc4c5c(nc(OC[C@@]67CCCN6C[C@H](F)C7)nc5c3F)N3C[C@H]5CC[C@H](N5)C3C[C@H]4C)c12 (stereo in doubt) [Example 96, 5-ethynyl-6-fluoro-4-((4R,5aS,6S,9R)-1-fluoro-12-(((2R,7aS)-2-fluorotetrahydro-1H-pyrrolizin-7a(5H)-yl)methoxy)-4-methyl-4,5,5a,6,7,8,9,10-octahydro-3,10a,11,13,14-pentaaza-6,9-methanonaphtho[1,8-ab]heptalen-2-yl)naphthalen-2-ol] | 0.3 nM | – | – | 0.5 nM | 1.9 nM
5 | C#Cc1c(F)ccc2cc(O)cc(-c3nc4c5c(nc(OC[C@@]67CCCN6C[C@@H](OC(C(F)(F)F)(C(F)(F)F)C(F)(F)F)C7)nc5c3F)N3C[C@H]5CC[C@H](N5)[C@H]3CC4)c12 (stereo in doubt) [Example 134, 5-ethynyl-6-fluoro-4-((5aR,6S,9R)-1-fluoro-12-((cis-2-((1,1,1,3,3,3-hexafluoro-2-(trifluoromethyl)propan-2-yl)oxy)tetrahydro-1H-pyrrolizin-7a(5H)-yl)methoxy)-4,5,5a,6,7,8,9,10-octahydro-3,10a,11,13,14-pentaaza-6,9-methanonaphtho[1,8-ab]heptalen-2-yl)naphthalen-2-ol] | 0.5 nM | – | – | 2.2 nM | 31 nM
6 | C#Cc1c(F)ccc2cc(O)cc(-c3nc4c5c(nc(OC[C@]67CCCN6C[C@@H](OC(F)(F)F)C7)nc5c3F)N3C[C@H]5CC[C@H](N5)[C@H]3CC4)c12 (stereo in doubt) [Example 141, 5-ethynyl-6-fluoro-4-((5aR,6S,9R)-1-fluoro-12-((trans-2-(trifluoromethoxy)tetrahydro-1H-pyrrolizin-7a(5H)-yl)methoxy)-4,5,5a,6,7,8,9,10-octahydro-3,10a,11,13,14-pentaaza-6,9-methanonaphtho[1,8-ab]heptalen-2-yl)naphthalen-2-ol] | 0.2 nM | – | – | 0.4 nM | 3.7 nM
7 | C#Cc1c(F)ccc2cc(O)cc(-c3nc4c5c(nc(OCC6(CN7CCC8(CC7)CC8)CC6)nc5c3F)N3C[C@H]5CC[C@H](N5)[C@H]3CC4)c12 [Example 177, 4-((5aR,6S,9R)-12-((1-((6-azaspiro[2.5]octan-6-yl)methyl)cyclopropyl)methoxy)-1-fluoro-4,5,5a,6,7,8,9,10-octahydro-3,10a,11,13,14-pentaaza[6,9]methanonaphtho[1,8-ab]heptalen-2-yl)-5-ethynyl-6-fluoronaphthalen-2-ol] | – | – | – | 1.5 nM | 20 nM
8 | C#Cc1c(F)ccc2cccc(-c3nc4c5c(nc(OC[C@@]67CCCN6[C@H](COc6cc(C(F)(F)F)ncn6)CC7)nc5c3F)N3C[C@H]5CC[C@H](N5)[C@H]3CC[C@H]4C)c12 [Example 203, (4R,6aR,7S,10R)-2-(8-ethynyl-7-fluoronaphthalen-1-yl)-1-fluoro-4-methyl-13-(((3S,7aS)-3-(((6-(trifluoromethyl)pyrimidin-4-yl)oxy)methyl)tetrahydro-1H-pyrrolizin-7a(5H)-yl)methoxy)-5,6,6a,7,8,9,10,11-octahydro-4H-3,11a,12,14,15-pentaaza-7,10-methanocyclohepta[4,5]cycloocta[1,2,3-de]naphthalene] | 0.12 nM | – | – | 1.2 nM | –
9 | C#Cc1c(F)ccc2cc(O)cc(-c3c(Cl)c4c5c(nc(OC[C@@]67CCCN6C[C@H](F)C7)nc5c3F)N3C[C@H]5CC[C@H](N5)[C@H]3CC4)c12 [Example 204, 4-((1S,4R,14aR)-12-chloro-10-fluoro-8-(((2R,7aS)-2-fluorotetrahydro-1H-pyrrolizin-7a(5H)-yl)methoxy)-1,2,3,4,5,13,14,14a-octahydro-1,4-epiminoazepino[1′,2′:1,7]azepino[2,3,4-de]quinazolin-11-yl)-5-ethynyl-6-fluoronaphthalen-2-ol] | 0.1 nM | – | – | 1.3 nM | –
10 | C#Cc1c(F)ccc2cccc(-c3nc4c5c(nc(OC[C@@]67CCCN6[C@H](COc6cc(C(F)F)ncn6)CC7)nc5c3F)N3C[C@H]5CC[C@H](N5)[C@H]3CCC4)c12 [Example 205, (6aR,7S,10R)-13-(((3S,7aS)-3-(((6-(difluoromethyl)pyrimidin-4-yl)oxy)methyl)tetrahydro-1H-pyrrolizin-7a(5H)-yl)methoxy)-2-(8-ethynyl-7-fluoronaphthalen-1-yl)-1-fluoro-5,6,6a,7,8,9,10,11-octahydro-4H-3,11a,12,14,15-pentaaza-7,10-methanocyclohepta[4,5]cycloocta[1,2,3-de]naphthalene] | 0.06 nM | – | – | 2.2 nM | –
11 | C#Cc1c(F)ccc2cccc(-c3nc4c5c(nc(OC[C@@]67CCCN6[C@H](COc6ncncc6C(F)F)CC7)nc5c3F)N3C[C@H]5CC[C@H](N5)[C@H]3CCC4)c12 [Example 206, (6aR,7S,10R)-13-(((3S,7aS)-3-(((5-(difluoromethyl)pyrimidin-4-yl)oxy)methyl)tetrahydro-1H-pyrrolizin-7a(5H)-yl)methoxy)-2-(8-ethynyl-7-fluoronaphthalen-1-yl)-1-fluoro-5,6,6a,7,8,9,10,11-octahydro-4H-3,11a,12,14,15-pentaaza-7,10-methanocyclohepta[4,5]cycloocta[1,2,3-de]naphthalene] | 0.04 nM | – | – | 1.6 nM | –
12 | C#Cc1c(F)ccc2cccc(-c3nc4c5c(nc(OC[C@@]67CCCN6[C@H](COc6nccnc6C(F)F)CC7)nc5c3F)N3C[C@H]5CC[C@H](N5)[C@H]3CCC4)c12 [Example 207, (6aR,7S,10R)-13-(((3S,7aS)-3-(((3-(difluoromethyl)pyrazin-2-yl)oxy)methyl)tetrahydro-1H-pyrrolizin-7a(5H)-yl)methoxy)-2-(8-ethynyl-7-fluoronaphthalen-1-yl)-1-fluoro-5,6,6a,7,8,9,10,11-octahydro-4H-3,11a,12,14,15-pentaaza-7,10-methanocyclohepta[4,5]cycloocta[1,2,3-de]naphthalene] | 0.06 nM | – | – | 1 nM | –
13 | C#Cc1c(F)ccc2cccc(-c3nc4c5c(nc(OC[C@@]67CCCN6[C@H](COc6ccnc(C(F)F)n6)CC7)nc5c3F)N3C[C@H]5CC[C@H](N5)[C@H]3CCC4)c12 [Example 208, (6aR,7S,10R)-13-(((3S,7aS)-3-(((2-(difluoromethyl)pyrimidin-4-yl)oxy)methyl)tetrahydro-1H-pyrrolizin-7a(5H)-yl)methoxy)-2-(8-ethynyl-7-fluoronaphthalen-1-yl)-1-fluoro-5,6,6a,7,8,9,10,11-octahydro-4H-3,11a,12,14,15-pentaaza-7,10-methanocyclohepta[4,5]cycloocta[1,2,3-de]naphthalene] | 0.09 nM | – | – | 3.3 nM | –
14 | (6aR,7S,10R)-2-(8-ethynyl-7-fluoronaphthalen-1-yl)-1-fluoro-13-(((3S,7aS)-3-(((2-(trifluoromethyl)pyrimidin-4-yl)oxy)methyl)tetrahydro-1H-pyrrolizin-7a(5H)-yl)methoxy)-5,6,6a,7,8,9,10,11-octahydro-4H-3,11a,12,14,15-pentaaza-7,10-methanocyclohepta[4,5]cycloocta[1,2,3-de]naphthalene [Example 153] | 0.3 nM | 4.3 nM | – | – | –
